Results reported in US10081662B2, “Modified relaxin B chain peptides” (The Florey Institute of Neuroscience and Mental Health, priority 2014, dated 2018).
Peptide text beside a SMILES is read from it.

What was measured:
RXFP1 = biological target: T1, RXFP1 (Homo sapiens, UniProt Q9HBX9); experiment: Eu-labelled H2 relaxin competition binding, whole HEK-293T cells stably transfected with RXFP1; settings: RXFP1-expressing cells, Eu-labelled H2 relaxin; FIG. 2A
T1 construct: expressed in transfected cells; host or cells: HEK-293T
T1 sequence (Q9HBX9 1-757): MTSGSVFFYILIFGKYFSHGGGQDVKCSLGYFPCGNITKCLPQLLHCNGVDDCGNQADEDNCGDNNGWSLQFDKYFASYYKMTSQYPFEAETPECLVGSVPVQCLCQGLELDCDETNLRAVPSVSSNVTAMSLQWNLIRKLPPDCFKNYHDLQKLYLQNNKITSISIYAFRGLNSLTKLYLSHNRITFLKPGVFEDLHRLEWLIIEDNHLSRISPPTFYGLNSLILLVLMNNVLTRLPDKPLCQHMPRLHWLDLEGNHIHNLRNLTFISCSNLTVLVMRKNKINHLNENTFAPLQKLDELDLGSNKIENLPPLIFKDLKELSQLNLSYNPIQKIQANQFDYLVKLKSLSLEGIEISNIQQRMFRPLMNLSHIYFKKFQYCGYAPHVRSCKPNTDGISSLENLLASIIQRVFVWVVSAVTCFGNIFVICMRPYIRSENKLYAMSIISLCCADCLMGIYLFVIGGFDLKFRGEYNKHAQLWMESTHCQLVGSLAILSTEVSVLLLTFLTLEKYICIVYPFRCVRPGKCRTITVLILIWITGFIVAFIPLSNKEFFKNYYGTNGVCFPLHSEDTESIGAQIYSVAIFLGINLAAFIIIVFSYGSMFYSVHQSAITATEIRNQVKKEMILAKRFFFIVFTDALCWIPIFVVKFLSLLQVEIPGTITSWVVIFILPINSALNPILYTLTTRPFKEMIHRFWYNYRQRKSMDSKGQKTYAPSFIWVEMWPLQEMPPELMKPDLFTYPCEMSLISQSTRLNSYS
Experimental: Human embryonic kidney (HEK-293T) cells stably transfected with RXFP1 were cultured in RPMI 1640 medium supplemented with 10% fetal calf serum, 100 μg/ml penicillin, 100 μg/ml streptomycin and 2 mM L-glutamine and plated into 96-well pre-coated with poly-L-lysine for whole cell binding assays. Competition binding experiments were conducted with Eu^3+-labelled H2 relaxin (as per Shabanpoor et al., 2012, Biochem Biophys Res Commun. 420, 253-256) in the absence or presence of increasing concentrations of unlabelled relaxin-2 B chain derivatives. Nonspecific binding was determined with an excess of unlabelled peptides (500 nM H2 relaxin). Fluorescent measurements were recorded at an excitation wavelength of 340 nm and emission of 614 nm on a Victor plate reader (Perkin-Elmer Inc.). […] Statistical differences in pIC50 values were analyzed using one-way analysis of variance coupled to Newman Keul's multiple comparison test for multiple group comparisons in GraphPad Prism 6.

[1] = system: rat model of myocardial infarction; experiment: Rat model of myocardial infarction-induced heart failure; format: in vivo; settings: vs vehicle
Experimental: Adult male Sprague-Dawley rats weighing 250-320 g were obtained from Animal Resources Centre, Perth, Wash., Australia. The rats were group housed in a constant temperature of 22±1° C. and a relative humidity of 50-60% under a controlled light-dark cycle of 12 hours. Rats were given access to standard laboratory rat chow and drinking water ad libitum.
Heart failure was induced as previously described (Ruchaya et al., 2014, Exp Physiol 99, 111-122). Breifly, to induce heart failure, rats were anaesthetised with an intramuscular injection of ketamine (60 mg/kg) and medetomide hydrochloride ([…]). A left sided thoracotomy through an opening between the fourth and fifth rib was performed, the heart was exteriorised and the left anterior descending coronary artery was ligated. Anaesthesia was reversed with antipamezole hydrocholide (1 mg/kg). Penicillin (1000 U) and buprenorphine (0.05 mg/kg) was administered to aid post-operative recovery. Animals were left to recover from the surgery under a heating source. Rats were individually housed after the surgery.
Eight weeks after myocardial infarction surgery, rats were randomly assigned to 3 groups (vehicle, H2 and B7-33), re-anaesthetised (2-3% isoflurane) and an osmotic mini-pump (model 2ML4, Alzet, Cupertino, Calif.) implanted intraperitoneally. Vehicle (saline), native H2 relaxin (0.5 mg/kg/day) or B7-33 C11.23S (0.5 mg/kg/day) was continuously administered for 28 days. At the conclusion of treatment, rats were anaesthetized (sodium pentobarbitone, 60 mg/kg i.p.) and the left ventricular end-diastolic pressure determined prior to decapitation and removal of the heart for histological analysis.

[2] = biological target: T2, fusion protein comprising the extracellular domain of RXFP1 and the transmembrane domain of CD8 (7BP cells) (Homo sapiens, UniProt Q9HBX9); experiment: Eu-labelled H2 relaxin competition binding to 7BP cells; settings: 7BP cells
T2 construct: the extracellular domain of RXFP1 and the transmembrane domain of CD8; expressed in transfected cells
T2 sequence (Q9HBX9 1-409 limits assumed): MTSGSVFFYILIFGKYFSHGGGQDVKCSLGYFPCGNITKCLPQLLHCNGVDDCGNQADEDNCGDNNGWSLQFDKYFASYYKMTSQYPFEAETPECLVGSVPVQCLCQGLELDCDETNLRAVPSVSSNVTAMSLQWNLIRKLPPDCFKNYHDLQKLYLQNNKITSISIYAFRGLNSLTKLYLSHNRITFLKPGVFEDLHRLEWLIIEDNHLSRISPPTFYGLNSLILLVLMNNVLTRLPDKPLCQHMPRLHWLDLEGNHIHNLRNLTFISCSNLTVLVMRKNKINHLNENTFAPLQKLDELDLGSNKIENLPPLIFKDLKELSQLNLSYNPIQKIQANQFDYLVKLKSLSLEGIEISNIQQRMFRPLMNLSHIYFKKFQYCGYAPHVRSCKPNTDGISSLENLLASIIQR

SMILES: CC[C@H](C)[C@H](NC(=O)[C@H](C)NC(=O)[C@@H](NC(=O)[C@H](CCC(N)=O)NC(=O)[C@H](C)NC(=O)[C@H](CCCNC(=N)N)NC(=O)[C@@H](NC(=O)[C@H](CC(C)C)NC(=O)[C@H](CCC(=O)O)NC(=O)[C@H](CCCNC(=N)N)NC(=O)CNC(=O)[C@H](CO)NC(=O)[C@H](CC(C)C)NC(=O)[C@H](CCCCN)NC(=O)[C@@H](NC(=O)[C@@H](N)C(C)C)[C@@H](C)CC)C(C)C)[C@@H](C)CC)C(=O)N[C@@H](CO)C(=O)NCC(=O)N[C@@H](CCSC)C(=O)N[C@@H](CO)C(=O)N[C@H](C(=O)N[C@@H](Cc1c[nH]c2ccccc12)C(=O)N[C@@H](CO)C(=O)N[C@@H](CCCCN)C(=O)N[C@@H](CCCNC(=N)N)C(=O)N[C@@H](CO)C(=O)N[C@@H](CC(C)C)C(N)=O)[C@@H](C)O [B7-33 C11.23S] (H-VIKLSGRELVRAQIAISGMSTWSKRSL-NH2)
- Binding to RXFP1 (in words) (RXFP1): binds RXFP1, but with lower affinity than H2 relaxin
- Percentage of collagen in the interstitial area of the left ventricle ([1]; 0.5 mg/kg/day i.p. mini-pump for 28 days from 8 weeks after MI): significant reduction
- Left ventricular end-diastolic pressure (LVEDP) ([1]; 12 weeks after myocardial infarction): reduced
- Ki ([2]; competition with Eu-labelled H2 relaxin, n ≥ 3, read-out: 7BP Eu-H2 pKi (converted)): 22.4 nM
- Binding to 7BP cells (in words) ([2]; lower affinity than H2 relaxin, FIG. 2B): strongly bind to 7BP cells
